Test results published in US20060094664A1, “Deoxycholic acid derivatives for the treatment of acute dysfunctions of portal and hepatic venous circulation” (priority 2002, published 2006).
Marks after values point to notes of the source that are not given here.

What was measured:
[1] = test system: rat liver perfused with norepinephrine solution; experiment: Perfused rat liver: intrahepatic constriction induced by norepinephrine, infusion of tested compound; type: in vivo; details: for Portal pressure % increase after NE infusion: liver perfused with norepinephrine 1 μM, then single infusion of 1 mM solution of tested compound
Method: At the end of the treatment (fourth week) the animals were anaesthetized with urethane and then systemic pressure (MAP) and portal pressure (PP) were monitored by catheterisation both of the carotid and portal vein. The animal liver was then continuously perfused with Krebs solution (40 ml/min) balanced with O2/CO2 (95%-5%) using a peristaltic pump (Gilson) In this way the pharmacological effect of both tested compounds has been evaluated. The rat liver was then firstly perfused with norepinephrine solution (1 μM) in order to induce an intrahepatic circulation constriction. Afterwards, in groups 2 and 3 a single infusion with a 1 mM solution of each of the tested compounds was carried out and portal pressure variations have been monitored.

[2] = test system: Wistar rats subjected to ligature of bile duct; experiment: Portal and systemic pressure after a week treatment in rats with bile duct ligature; type: in vivo, rat; details: for Portal pressure After a week treatment: bile duct ligated Wistar rats, 0.04 mmol/kg twice a day intragastric for one week
Source text: Twenty one Wistar rats were divided in three groups of 7 animals each and then subjected to ligature of bile duct. Within three weeks following the ligature, the animals were left on rest. As a consequence of the bile duct ligature, the animals developed dysfunctions of the hepatic and portal venous circulation. At the end of the third week, each group underwent the following weekly treatment protocol: • Group 1: control group treated with carrier (1% w/v water suspension of carboxymethylcellulose); • Group 2: treated with NO-urso at a dose of 28 mg/kg (0.04 mmol/kg), twice a day; • Group 3: treated with ursodeoxycholic acid (urso in table) at a dose of 15 mg/kg (0,04 mmol/kg), twice a day. The rested compounds have been administered by intragastric cannula in 1% water suspension of carboxymethylcellulose. At the end of the treatment (fourth week) the animals were anaesthetized with urethane and then systemic pressure (MAP) and portal pressure (PP) were monitored by catheterisation both of the carotid and portal vein. The animal liver was then continuously perfused with Krebs solution (40 ml/min) balanced with O2/CO2 (95%-5%) using a peristaltic pump (Gilson) In this way the pharmacological effect of both tested compounds has been evaluated.

[3] = test system: Wistar rats subjected to ligature of bile duct; experiment: Hepatic fibrosis evaluated by an immunocytochemical method in bile duct ligated rats; type: in vivo, rat; details: a week treatment in bile duct ligated rats
Source text: Twenty one Wistar rats were divided in three groups of 7 animals each and then subjected to ligature of bile duct. Within three weeks following the ligature, the animals were left on rest. As a consequence of the bile duct ligature, the animals developed dysfunctions of the hepatic and portal venous circulation. At the end of the third week, each group underwent the following weekly treatment protocol: • Group 1: control group treated with carrier (1% w/v water suspension of carboxymethylcellulose); • Group 2: treated with NO-urso at a dose of 28 mg/kg (0.04 mmol/kg), twice a day; • Group 3: treated with ursodeoxycholic acid (urso in table) at a dose of 15 mg/kg (0,04 mmol/kg), twice a day.

influence on systemic hemodynamic parameters (systemic pressure, cardiac frequency) ([2]; a week treatment in bile duct ligated rats) | Systemic hemodynamic parameters: Systemic pressure (MAP) ([2]; bile duct ligated rats after a week treatment, 0.04 mmol/kg twice a day, carotid catheterisation, in mmHg (unit assumed)) | Systemic hemodynamic parameters: Cardiac frequency ([2]; bile duct ligated rats after a week treatment, 0.04 mmol/kg twice a day, in beats/min (unit assumed)) | Structure (SMILES) | Portal pressure % increase after NE infusion [1] [%] | portal pressure increase with respect to controls ([2]; after the week treatment, perfusion rate 40 ml/min) [mmHg] | Portal pressure After a week treatment ([2]; perfusion rate 40 ml/min) | increase of intrahepatic resistance induced by norepinephrine ([1]; 500% increase determined by NE infusion, NO-urso p<0.001) | portal pressure reduction ([2]; after the week treatment, perfusion rate 40 ml/min, with respect to controls) [mmHg] | influence on systemic hemodynamic parameters (systemic pressure, cardiac frequency) ([2]; rat, in vivo) | influence on hepatic fibrosis [3] | influence on hepatic fibrosis ([3]; listed as No-urso)
do not influence | 95 ± 12 | 372 ± 41 | C[C@H](CCC(=O)O)[C@H]1CC[C@H]2[C@@H]3[C@@H](O)C[C@@H]4C[C@H](O)CC[C@]4(C)[C@H]3CC[C@]12C [Urso, ursodeoxycholic acid] | 400 | 2 | 19 mmHg | – | – | – | – | –
– | – | – | COc1cc(/C=C/C(=O)OCCCCO[N+](=O)[O-])ccc1OC(=O)CC[C@@H](C)[C@H]1CC[C@H]2[C@@H]3[C@@H](O)C[C@@H]4C[C@H](O)CC[C@]4(C)[C@H]3CC[C@]12C [NO-urso, (3α,5β,7β)-3,7-dihydroxycholan-24-oic Acid 2-methoxy-4[3-[4-(nitrooxy)butoxy]-3-oxo-1-propenyl]phenyl Ester] | 180 | – | 14* mmHg | significantly reduced | 3 | do not influence | does not modify | do not influence
